The series relates to rodent lifetime carcinogenesis bioassay, tumor incidence TD50. In words: carcinogenic potency in animals, long-term in vivo studies, CPDB compilation (AID 1745844).

These results are taken from PubChem BioAssay AID1745844 (Carcinogenic Potency Database (CPDB), 2022).

Values joined by “and” are separate entries in the source; they are usually repeats but may differ in a detail not shown here. Equal values may be shown once. Active and inactive are the calls of the source. The rule behind the calls is not given here.

As for `Cc1cc(Cl)ccc1N`, the TD50 was 40 mg/kg/day (mouse, strain B6C3F1, females, in feed, site: all sites, lesion: hemangioma + hemangiosarcoma, dosed 95 weeks, study length 99 weeks); 42.3 mg/kg/day (mouse, strain B6C3F1, females, in feed, site: all sites, lesion: hemangiosarcoma, dosed 95 weeks, study length 99 weeks); 38.8 mg/kg/day (mouse, strain B6C3F1, females, in feed, site: any site (literature study), lesion: several types, types named in the paper, dosed 95 weeks, study length 99 weeks); 754 mg/kg/day (mouse, strain B6C3F1, females, in feed, site: liver, lesion: hepatocellular adenoma + hepatocellular carcinoma + neoplastic nodule, dosed 95 weeks, study length 99 weeks); 798 mg/kg/day (mouse, strain B6C3F1, females, in feed, site: lung, lesion: alveolar/bronchiolar adenoma + alveolar/bronchiolar carcinoma, dosed 95 weeks, study length 99 weeks); 743 mg/kg/day (mouse, strain B6C3F1, males, in feed, site: all sites, lesion: hemangioma + hemangiosarcoma, dosed 99 weeks, study length 99 weeks). Further, the TD50 by setting is: (mouse, strain B6C3F1, males, in feed, site: all sites, lesion: hemangiosarcoma, dosed 99 weeks, study length 99 weeks) 911 mg/kg/day; (mouse, strain B6C3F1, males, in feed, site: any site (literature study), lesion: several types, types named in the paper, dosed 99 weeks, study length 99 weeks) 537 mg/kg/day; (mouse, strain B6C3F1, males, in feed, site: liver, lesion: hepatocellular adenoma + hepatocellular carcinoma + neoplastic nodule, dosed 99 weeks, study length 99 weeks) 3260 mg/kg/day; (mouse, strain CD-1 HaM/ICR, females, in feed, site: all sites, lesion: all vascular tumors, dosed 51 weeks, study length 60 weeks) 15.7 mg/kg/day and 18.4 mg/kg/day; (mouse, strain CD-1 HaM/ICR, females, in feed, site: any site (literature study), lesion: several types, types named in the paper, dosed 51 weeks, study length 60 weeks) 15.6 mg/kg/day; (mouse, strain CD-1 HaM/ICR, females, in feed, site: liver, lesion: several types, types named in the paper, dosed 51 weeks, study length 60 weeks) 139 mg/kg/day (inactive). Besides, the TD50 reads like this: (mouse, strain CD-1 HaM/ICR, females, in feed, site: lung, lesion: several types, types named in the paper, dosed 51 weeks, study length 60 weeks) 153 mg/kg/day (inactive); (mouse, strain CD-1 HaM/ICR, males, in feed, site: all sites, lesion: all vascular tumors, dosed 55 weeks, study length 60 weeks) 15.4 mg/kg/day; (mouse, strain CD-1 HaM/ICR, males, in feed, site: any site (literature study), lesion: several types, types named in the paper, dosed 55 weeks, study length 60 weeks) 7.72 mg/kg/day; (mouse, strain CD-1 HaM/ICR, males, in feed, site: liver, lesion: several types, types named in the paper, dosed 55 weeks, study length 60 weeks) 95.7 mg/kg/day (inactive); (mouse, strain CD-1 HaM/ICR, males, in feed, site: lung, lesion: several types, types named in the paper, dosed 55 weeks, study length 60 weeks) 8.85 mg/kg/day (inactive); (rat, strain Charles River CD (Sprague-Dawley), males, in feed, site: any site (literature study), lesion: several types, types named in the paper, dosed 77 weeks, study length 98 weeks) 24.9 mg/kg/day (inactive). In addition, the TD50 was 123 mg/kg/day (inactive) (rat, strain Charles River CD (Sprague-Dawley), males, in feed, site: liver, lesion: several types, types named in the paper, dosed 77 weeks, study length 98 weeks); 6180 mg/kg/day (rat, strain Fischer 344, males, in feed, site: liver, lesion: hepatocellular adenoma + hepatocellular carcinoma + neoplastic nodule, dosed 107 weeks, study length 107 weeks); 576 mg/kg/day (inactive) (rat, strain Fischer 344, males, in feed, site: pituitary gland, lesion: chromophobe adenoma, dosed 107 weeks, study length 107 weeks). Moreover, the carcinogen call (rat, strain Fischer 344, females, in feed, site: any site (literature study), lesion: several types, types named in the paper, dosed 107 weeks, study length 107 weeks) was “negative (inactive)”.

Consider `C[C@@H]1O[C@@H](OC[C@H]2O[C@@H](Oc3c(-c4ccc(O)c(O)c4)oc4cc(O)cc(O)c4c3=O)[C@H](O)[C@@H](O)[C@@H]2O)[C@H](O)[C@H](O)[C@H]1O`, for which the TD50 by setting is: (hamster, strain Syrian Golden, females, in feed, site: adrenal gland, lesion: cortical adenoma, dosed 104 weeks, study length 104 weeks) 132000 mg/kg/day (inactive); (hamster, strain Syrian Golden, females, in feed, site: uterus, lesion: leiomyoma, dosed 104 weeks, study length 104 weeks) 140000 mg/kg/day (inactive); (rat, strain ACI, females, in feed, site: adrenal gland, lesion: pheochromocytoma, dosed 121 weeks, study length 121 weeks) 90400 mg/kg/day (inactive); (rat, strain ACI, females, in feed, site: heart, lesion: sarcoma, dosed 121 weeks, study length 121 weeks) 90400 mg/kg/day (inactive); (rat, strain ACI, females, in feed, site: pituitary gland, lesion: adenoma, dosed 77 weeks, study length 77 weeks) 8910 mg/kg/day (inactive); (rat, strain ACI, females, in feed, site: urinary bladder, lesion: papilloma, dosed 77 weeks, study length 77 weeks) 8910 mg/kg/day (inactive). Also, the TD50 is 5710 mg/kg/day (inactive) (rat, strain ACI, males, in feed, site: adrenal gland, lesion: cortical adenoma, dosed 77 weeks, study length 77 weeks); 72300 mg/kg/day (inactive) (rat, strain ACI, males, in feed, site: colon, lesion: adenoma, dosed 121 weeks, study length 121 weeks); 72300 mg/kg/day (inactive) (rat, strain ACI, males, in feed, site: ileum, lesion: adenoma, dosed 121 weeks, study length 121 weeks); 3530 mg/kg/day (inactive) (rat, strain ACI, males, in feed, site: testis, lesion: interstitial-cell tumor, dosed 77 weeks, study length 77 weeks); 44800 mg/kg/day (inactive) (rat, strain Sprague-Dawley, females, by gavage, site: liver, lesion: hepatocellular carcinoma, dosed 104 weeks, study length 138 weeks). Also, the carcinogen call (hamster, strain Syrian Golden, males, in feed, site: adrenal gland, lesion: cortical adenoma, dosed 104 weeks, study length 104 weeks) was “negative (inactive)”; the carcinogen call (hamster, strain Syrian Golden, males, in feed, site: forestomach, lesion: papilloma, dosed 104 weeks, study length 104 weeks) is “negative (inactive)”; the carcinogen call (rat, strain Sprague-Dawley, males, by gavage, site: liver, lesion: hepatocellular carcinoma, dosed 104 weeks, study length 134 weeks) was “negative (inactive)”.
